The results in this text go back to patent publication US12427212B2, “Nectin-4 binding miniproteins, conjugates and uses thereof” (Aktis Oncology, Inc., priority 2023, dated 2025).

Bridges are numbered along the chain shown (N, C = ends). [ ]: non-standard residue; d: D form. The star is where a group is joined. DOTA = O=C(O)CN1CCN(CC(=O)O)CCN(CC(=O)*)CCN(CC(=O)O)CC1; Lys(Me3) = C[N+](C)(C)CCCC[C@H](N)C(=O)O; Cit = NC(=O)NCCC[C@H](N)C(=O)O; PEG4 = NCCOCCOCCOCCOCCC(=O)O

Data set [1] deals with un-transfected HEK293 cells. Nature of the data set: Background binding to un-transfected HEK293 cells (cell microarray suitability). It is filed as cell-based, human. Conditions: biotin-labeled molecules. Here is the method: To evaluate potential off-target binding, six biotin-labeled molecules were tested in a cell microarray platform having 6,416 different human proteins spanning diverse functions and subcellular locations.

The nature of the next data set: in vivo. To be noted: Sprague Dawley, rat, iv. Here is the method: To begin, double jugular vein-cannulated Sprague Dawley rats were dosed with bolus intravenous injections of miniproteins (0.03-0.3 mg/kg) and FITC-sinistrin. Nine blood collection timepoints were taken from 0-2 h, processed to plasma with K2 EDTA, and were frozen for subsequent bioanalysis. Plasma miniprotein concentrations were measured by LC-MS/MS. To control for inter-animal renal clearance differences, and to compare with glomerular filtration rate (GFR), the miniprotein was co-formulated with a molecular marker of GFR, FITC-sinistrin (FS) (Pill et al., 2005). Plasma FITC-sinistrin was measured fluorometrically. All unknown sample measurements were interpolated against known authentic standards spiked into normal rat plasma to calculate concentration. Finally, non-compartmental analysis was performed to estimate plasma pharmacokinetic parameters.

Take `CC[C@H](C)[C@@H]1NC(=O)[C@H](Cc2ccc(O)cc2)NC(=O)[C@H](CCC(=O)O)NC(=O)[C@@H]2CSSC[C@@H](C(=O)N[C@@H](CO)C(=O)O)NC(=O)CNC(=O)[C@H](CC(C)C)NC(=O)[C@H](CC(N)=O)NC(=O)[C@H](CC(=O)O)NC(=O)[C@H](CC(C)C)NC(=O)[C@H]([C@@H](C)CC)NC(=O)[C@H](CCC(=O)O)NC(=O)[C@H](CCC(=O)O)NC(=O)[C@H]([C@@H](C)CC)NC(=O)[C@H](CSSC[C@H](NC(=O)CCOCCOCCOCCOCCNC(=O)CCCC[C@@H]3SC[C@@H]4NC(=O)N[C@@H]43)C(=O)N[C@@H](CC(=O)O)C(=O)N[C@@H](Cc3ccc(O)cc3)C(=O)N[C@@H](CC(=O)O)C(=O)N[C@@H](CCC(=O)O)C(=O)N[C@@H](CCC(N)=O)C(=O)N[C@@H](Cc3ccccc3)C(=O)N[C@@H](Cc3ccccc3)C(=O)N[C@@H]([C@@H](C)O)C(=O)N[C@@H](C)C(=O)N[C@@H](CC(C)C)C(=O)N[C@@H](CCCCN)C(=O)N[C@@H](CCCNC(=N)N)C(=O)N[C@@H](CC(C)C)C(=O)N[C@@H](CCCNC(=N)N)C(=O)NCC(=O)NCC(=O)N[C@@H](CC(=O)O)C(=O)N[C@@H]([C@@H](C)CC)C(=O)N2)NC(=O)[C@H](CC(C)C)NC(=O)CNC(=O)[C@@H]2CCCN2C(=O)[C@H](CC(C)C)NC(=O)[C@H](Cc2ccc(O)cc2)NC(=O)[C@H](CCC(N)=O)NC(=O)[C@H](Cc2ccccc2)NC(=O)[C@H](CO)NC(=O)[C@H](C)NC(=O)[C@H](CCC(N)=O)NC1=O` [Compound C190]: the “Background binding to un-transfected HEK293 cells” value in data set [1] was “low-background binding”. In the case of `CC[C@H](C)[C@@H]1NC(=O)[C@H](Cc2ccc(O)cc2)NC(=O)[C@H](CC(=O)O)NC(=O)[C@@H]2CSSC[C@@H](C(=O)N[C@@H](CO)C(=O)O)NC(=O)CNC(=O)[C@H](CC(C)C)NC(=O)[C@H](CC(N)=O)NC(=O)[C@H](CC(=O)O)NC(=O)[C@H](CC(C)C)NC(=O)[C@H]([C@@H](C)CC)NC(=O)[C@H](CCC(=O)O)NC(=O)[C@H](CCC(=O)O)NC(=O)[C@H]([C@@H](C)CC)NC(=O)[C@H](CSSC[C@H](NC(=O)CCOCCOCCOCCOCCNC(=O)CN3CCN(CC(=O)O)CCN(CC(=O)O)CCN(CC(=O)O)CC3)C(=O)N[C@@H](CCC(=O)O)C(=O)N[C@@H](Cc3ccc(O)cc3)C(=O)N[C@@H](CC(=O)O)C(=O)N[C@@H](CCC(=O)O)C(=O)N[C@@H](CCC(N)=O)C(=O)N[C@@H](Cc3ccccc3)C(=O)N[C@@H](Cc3ccccc3)C(=O)N[C@@H]([C@@H](C)O)C(=O)N[C@@H](C)C(=O)N[C@@H](CC(C)C)C(=O)N[C@@H](CCCCN)C(=O)N[C@@H](CCCNC(=N)N)C(=O)N[C@@H](CC(C)C)C(=O)N[C@@H](CCCNC(=N)N)C(=O)NCC(=O)N[C@@H](CC(=O)O)C(=O)N[C@@H](CC(=O)O)C(=O)N[C@@H]([C@@H](C)CC)C(=O)N2)NC(=O)[C@H](CC(C)C)NC(=O)CNC(=O)[C@@H]2CCCN2C(=O)[C@H](CC(C)C)NC(=O)[C@H](Cc2ccc(O)cc2)NC(=O)[C@H](CCC(N)=O)NC(=O)[C@H](Cc2ccccc2)NC(=O)[C@H](CO)NC(=O)[C@H](C)NC(=O)[C@H](CCC(N)=O)NC1=O` [Compound C237], the half-life (as a rule, the time in which the quantity being followed falls by half) in the data set “in vivo” is 28.4 min.

On to `CC[C@H](C)[C@@H]1NC(=O)[C@H](Cc2ccc(O)cc2)NC(=O)[C@H](CCC(=O)O)NC(=O)[C@@H]2CSSC[C@@H](C(=O)N[C@@H](CO)C(=O)O)NC(=O)CNC(=O)[C@H](CC(C)C)NC(=O)[C@H](CC(N)=O)NC(=O)[C@H](CC(=O)O)NC(=O)[C@H](CC(C)C)NC(=O)[C@H]([C@@H](C)CC)NC(=O)[C@H](CCC(=O)O)NC(=O)[C@H](CCC(=O)O)NC(=O)[C@H]([C@@H](C)CC)NC(=O)[C@H](CSSC[C@H](NC(=O)CCOCCOCCOCCOCCNC(=O)CN3CCN(CC(=O)O)CCN(CC(=O)O)CCN(CC(=O)O)CC3)C(=O)N[C@@H](CC(=O)O)C(=O)N[C@@H](Cc3ccc(O)cc3)C(=O)N[C@@H](CC(=O)O)C(=O)N[C@@H](CCC(=O)O)C(=O)N[C@@H](CCC(N)=O)C(=O)N[C@@H](Cc3ccccc3)C(=O)N[C@@H](Cc3ccccc3)C(=O)N[C@@H]([C@@H](C)O)C(=O)N[C@@H](C)C(=O)N[C@@H](CC(C)C)C(=O)N[C@@H](CCCCN)C(=O)N[C@@H](CCCNC(=N)N)C(=O)N[C@@H](CC(C)C)C(=O)N[C@@H](CCCNC(=N)N)C(=O)NCC(=O)NCC(=O)N[C@@H](CC(=O)O)C(=O)N[C@@H]([C@@H](C)CC)C(=O)N2)NC(=O)[C@H](CC(C)C)NC(=O)CNC(=O)[C@@H]2CCCN2C(=O)[C@H](CC(C)C)NC(=O)[C@H](Cc2ccc(O)cc2)NC(=O)[C@H](CCC(N)=O)NC(=O)[C@H](Cc2ccccc2)NC(=O)[C@H](CO)NC(=O)[C@H](C)NC(=O)[C@H](CCC(N)=O)NC1=O` [Compound C240], for which the half-life in the data set “in vivo” is 29.7 min. Still for that read-out and setting: the result for `CC[C@H](C)[C@@H]1NC(=O)[C@H](Cc2ccc(O)cc2)NC(=O)[C@H](CCC(=O)O)NC(=O)[C@@H]2CSSC[C@@H](C(=O)N[C@@H](CO)C(=O)O)NC(=O)CNC(=O)[C@H](CC(C)C)NC(=O)[C@H](CC(N)=O)NC(=O)[C@H](CC(=O)O)NC(=O)[C@H](CC(C)C)NC(=O)[C@H]([C@@H](C)CC)NC(=O)[C@H](CCC(=O)O)NC(=O)[C@H](CCC(=O)O)NC(=O)[C@H]([C@@H](C)CC)NC(=O)[C@H](CSSC[C@H](NC(=O)CCOCCOCCOCCOCCNC(=O)CN3CCN(CC(=O)O)CCN(CC(=O)O)CCN(CC(=O)O)CC3)C(=O)N[C@@H](CC(=O)O)C(=O)N[C@@H](Cc3ccc(O)cc3)C(=O)N[C@@H](CC(=O)O)C(=O)N[C@@H](CCC(=O)O)C(=O)N[C@@H](CCC(N)=O)C(=O)N[C@@H](Cc3ccccc3)C(=O)N[C@@H](Cc3ccccc3)C(=O)N[C@@H]([C@@H](C)O)C(=O)N[C@@H](C)C(=O)N[C@@H](CC(C)C)C(=O)N[C@@H](C)C(=O)N[C@@H](CCCNC(=N)N)C(=O)N[C@@H](CC(C)C)C(=O)N[C@@H](CCCNC(=N)N)C(=O)NCC(=O)N[C@@H](C)C(=O)N[C@@H](CC(=O)O)C(=O)N[C@@H]([C@@H](C)CC)C(=O)N2)NC(=O)[C@H](CCC(=O)O)NC(=O)CNC(=O)[C@@H]2CCCN2C(=O)[C@H](CC(C)C)NC(=O)[C@H](Cc2ccc(O)cc2)NC(=O)[C@H](CCC(N)=O)NC(=O)[C@H](Cc2ccccc2)NC(=O)[C@H](CO)NC(=O)[C@H](C)NC(=O)[C@H](CCC(N)=O)NC1=O` [Compound C246] reads 38 min; that for `CC[C@H](C)[C@@H]1NC(=O)[C@H](Cc2ccc(O)cc2)NC(=O)[C@H](CCC(=O)O)NC(=O)[C@@H]2CSSC[C@@H](C(=O)N[C@@H](CO)C(=O)O)NC(=O)CNC(=O)[C@H](CC(C)C)NC(=O)[C@H](CC(N)=O)NC(=O)[C@H](CC(=O)O)NC(=O)[C@H](CC(C)C)NC(=O)[C@H]([C@@H](C)CC)NC(=O)[C@H](CCC(=O)O)NC(=O)[C@H](CCC(=O)O)NC(=O)[C@H]([C@@H](C)CC)NC(=O)[C@H](CSSC[C@H](NC(=O)CCOCCOCCOCCOCCNC(=O)CN3CCN(CC(=O)O)CCN(CC(=O)O)CCN(CC(=O)O)CC3)C(=O)N[C@@H](CC(=O)O)C(=O)N[C@@H](Cc3ccc(O)cc3)C(=O)N[C@@H](CC(=O)O)C(=O)N[C@@H](CCC(=O)O)C(=O)N[C@@H](CCC(N)=O)C(=O)N[C@@H](Cc3ccccc3)C(=O)N[C@@H](Cc3ccccc3)C(=O)N[C@@H]([C@@H](C)O)C(=O)N[C@@H](C)C(=O)N[C@@H](CC(C)C)C(=O)N[C@@H](CCCCN)C(=O)N[C@@H](CCCNC(=N)N)C(=O)N[C@@H](CC(C)C)C(=O)N[C@@H](CCCNC(=N)N)C(=O)NCC(=O)N[C@@H](C)C(=O)N[C@@H](CC(=O)O)C(=O)N[C@@H]([C@@H](C)CC)C(=O)N2)NC(=O)[C@H](CCC(=O)O)NC(=O)CNC(=O)[C@@H]2CCCN2C(=O)[C@H](CC(C)C)NC(=O)[C@H](Cc2ccc(O)cc2)NC(=O)[C@H](CCC(N)=O)NC(=O)[C@H](Cc2ccccc2)NC(=O)[C@H](CO)NC(=O)[C@H](C)NC(=O)[C@H](CCC(N)=O)NC1=O` [Compound C270], 28.3 min; that for “{DOTA-PEG4}-CDYDEQFFTALA[Cit]LRGGDICEYIQA[Lys(Me3)]FQYLPGLCIEEILDNLGCS-OH (disulfide 1-34, 20-44 (inferred)) [Compound C261]”, 28.7 min. In the data set “in vivo”, “{DOTA-PEG4}-CEYDEEFFTALARLRGGDICQYIQAKFQYLPGQCIEEILDNLGCS-OH (disulfide 1-34, 20-44) [Compound C242]” came in with a half-life of 29.7 min. The same measure, in the same setting: the result for “{DOTA-PEG4}-CEYDEEFFTALKRLRGGDICYYIQAKFQYLPKLCIEEILDNLGCS-OH (disulfide 1-34, 20-44) [Compound C118]” reads 19.7 min. Same read-out and setting: the result for “{DOTA-PEG4}-CEYDEQFFTALARLRGGDICEYIQAKFQYLPGLCIEEILDNLGCS-OH (disulfide 1-34, 20-44) [Compound C219]” reads 25.4 min; that for “{DOTA-PEG4}-CEYDEQFFTALKALRGGDICYYIQASFNYLPDLCIEEILDNLGCS-OH (disulfide 1-34, 20-44 (inferred)) [Compound C114]”, 25.5 min.
